Experimental data taken from patent US20210277020A1, “HETEROCYCLIC COMPOUNDS AS MONOACYLGLYCEROL LIPASE INHIBITORS” (Hoffmann-La Roche Inc., priority 2018, published 2021).

Target: T1, MAGL (Homo sapiens, UniProt Q99685)
T1 sequence (Q99685 1-303): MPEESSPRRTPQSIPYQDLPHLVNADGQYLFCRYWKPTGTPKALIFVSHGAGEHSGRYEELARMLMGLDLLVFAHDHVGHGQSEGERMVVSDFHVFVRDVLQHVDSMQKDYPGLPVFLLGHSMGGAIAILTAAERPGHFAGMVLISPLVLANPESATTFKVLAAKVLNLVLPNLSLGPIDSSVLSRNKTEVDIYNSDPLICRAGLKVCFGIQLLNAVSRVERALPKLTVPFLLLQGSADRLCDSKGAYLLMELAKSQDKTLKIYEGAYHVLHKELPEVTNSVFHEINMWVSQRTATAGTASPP
Assay: 2-AG assay: MAGL inhibition followed by hydrolysis of 2-arachidonoylglycerol to arachidonic acid, mass spectrometry
Type: biochemical
Conditions: measured in 2-AG assay (footnote [a]); substrate 2-arachidonoylglycerol 8 μM, 30 min at RT
Text: Alternatively, compounds were profiled for MAGL inhibitory activity by determining the enzymatic activity by following the hydrolysis of the natural substrate, 2-arachidonoylglycerol, resulting in arachidonic acid, which can be followed by mass spectrometry. This assay is hereinafter abbreviated “2-AG assay”.
Detection by mass spectrometry in the present 2-AG assay has the advantage over known optical assays that the natural enzyme substrate, 2-arachidonoylglycerol, can be used instead of structurally unrelated compounds needed for optical readouts (such as 4-NPA). It thereby delivers more relevant data for activity determination, reduces false positives and generally adds to data quality. In addition, this assay reduces the analysis time from about 10 minutes per sample with standard methods to under 10 seconds per sample. This allows for using the present 2-AG assay in a method for high throughput screening of compounds for their MAGL inhibitory activity.
The 2-AG assay was carried out in 384 well assay plates (PP, Greiner Cat #784201) in a total volume of 20 μL. Compound dilutions were made in 100% DMSO (VWR Chemicals 23500.297) in a polypropylene plate in 3-fold dilution steps to give a final concentration range in the assay from 12.5 μM to […]. 0.25 μL compound dilutions (100% DMSO) were added to 9 μL MAGL in assay buffer (50 mM TRIS (GIBCO, 15567-027), 1 mM EDTA (Fluka, 03690-100 mL), 0.01% (v/v) Tween. After shaking, the plate was incubated for 15 min at RT. To start the reaction, 10 μL 2-arachidonoylglycerol in assay buffer was added. The final concentrations in the assay was […] and 8 μM 2-arachidonoylglyerol. After shaking and 30 min incubation at RT, the reaction was quenched by the addition of 40 μL of acetonitrile containing 4 μM of d8-arachidonic acid. The amount of arachidonic acid was traced by an online SPE system (Agilent Rapidfire) coupled to a triple quadrupole mass spectrometer (Agilent 6460). A C18 SPE cartridge (G9205A) was used in an acetonitrile/water liquid setup. The mass spectrometer was operated in negative electrospray mode following the mass transitions 303.1→259.1 for arachidonic acid and 311.1→267.0 for d8-arachidonic acid. The activity of the compounds was calculated based on the ratio of intensities [arachidonic acid/d8-arachidonic acid].
In a preferred embodiment, the method for determining the MAGL inhibitory activity of a test compound according to the invention, comprises: • (i) providing a solution of a test compound; • (ii) adding the solution of step (i) to a solution of MAGL; • (iii) shaking the mixture obtained from step (ii); • (iv) incubating the mixture obtained from step (iii); • (v) adding a solution of 2-arachidonoylglycerol; • (vi) incubating the mixture obtained from step (v); • (vii) adding a solution of d8-arachidonic acid; and • (viii) determining the ratio of intensities arachidonic acid/d8-arachidonic acid using a mass spectrometer.

## O=C1CO[C@H]2CCN(C(=O)N3CC([S+]([O-])c4ccc(C(F)(F)F)cc4Cl)C3)C[C@H]2N1 (mixture of isomers) [Example 145, (4aR,8aS)-6-[3-[2-Chloro-4-(trifluoromethyl)phenyl]sulfinylazetidine-1-carbonyl]-4,4a,5,7,8,8a-hexahydropyrido[4,3-b][1,4]oxazin-3-one]
  IC50: 5.62 µM

## O=C1CO[C@H]2CCN(C(=O)N3CC(C[S+]([O-])c4ccc(C(F)(F)F)cc4Cl)C3)C[C@H]2N1 (mixture of isomers) [Example 153, (4aR,8aS)-6-[3-[[2-Chloro-4-(trifluoromethyl)phenyl]sulfinylmethyl]azetidine-1-carbonyl]-4,4a,5,7,8,8a-hexahydropyrido[4,3-b][1,4]oxazin-3-one]
  IC50: 0.318 µM

## CN(c1ccc(C(F)(F)F)cc1)C1CCN(C(=O)N2CC[C@@H]3OCC(=O)N[C@@H]3C2)CC1 (racemic) [Example 136, rac-(4aR,8aS)-6-[4-[N-methyl-4-(trifluoromethyl)anilino]piperidine-1-carbonyl]-4,4a,5,7,8,8a-hexahydropyrido[4,3-b][1,4]oxazin-3-one]
  IC50: 0.022 µM

## CN(c1ccc(C(F)(F)F)cc1)C1CN(C(=O)N2CC[C@@H]3OCC(=O)N[C@@H]3C2)C1 (racemic) [Example 137, rac-(4aR,8aS)-6-[3-[N-methyl-4-(trifluoromethyl)anilino]azetidine-1-carbonyl]-4,4a,5,7,8,8a-hexahydropyrido[4,3-b][1,4]oxazin-3-one]
  IC50: 1.1 µM

## O=C1CO[C@H]2CCN(C(=O)N3CC([S+]([O-])c4ccc(C(F)(F)F)cc4Cl)C3)C[C@H]2N1 (single isomer, unassigned) [Example 146]
  IC50: 2.72 µM

## O=C1CO[C@H]2CCN(C(=O)N3CC([S+]([O-])c4ccc(C(F)(F)F)cc4Cl)C3)C[C@H]2N1 (single isomer, unassigned) [Example 147]
  IC50: 12.5 µM

## O=C1CO[C@H]2CCN(C(=O)N3CC(C[S+]([O-])c4ccc(C(F)(F)F)cc4Cl)C3)C[C@H]2N1 (single isomer, unassigned) [Example 154]
  IC50: 0.307 µM

## O=C1CO[C@H]2CCN(C(=O)N3CC(C[S+]([O-])c4ccc(C(F)(F)F)cc4Cl)C3)C[C@H]2N1 (single isomer, unassigned) [Example 155]
  IC50: 1.98 µM

## O=C1CO[C@H]2CCN(C(=O)N3CC(CNC(c4ccc(C(F)(F)F)cc4)C(F)(F)F)C3)C[C@H]2N1 (stereo partly drawn) [Example 41, (4aR,8aS)-6-[3-[[[2,2,2-Trifluoro-1-[4-(trifluoromethyl)phenyl]ethyl]amino]methyl]azetidine-1-carbonyl]hexahydro-2H-pyrido[4,3-b][1,4]oxazin-3(4H)-one]
  IC50: 0.024 µM

## O=C1CO[C@H]2CCN(C(=O)N3CC(CNC(c4cccc(C(F)(F)F)c4)C(F)(F)F)C3)C[C@H]2N1 (stereo partly drawn) [Example 68, (4aR,8aS)-6-(3-(((2,2,2-Trifluoro-1-(3-(trifluoromethyl)phenyl)ethyl)amino)methyl)azetidine-1-carbonyl)hexahydro-2H-pyrido[4,3-b][1,4]oxazin-3(4H)-one]
  IC50: 0.018 µM

## O=C1CO[C@H]2CCN(C(=O)N3CC(CNC(c4ccc(Cl)cc4Cl)C(F)(F)F)C3)C[C@H]2N1 (stereo partly drawn) [Example 69, (4aR,8aS)-6-(3-(((1-(2,4-Dichlorophenyl)-2,2,2-trifluoroethyl)amino)methyl)azetidine-1-carbonyl)hexahydro-2H-pyrido[4,3-b][1,4]oxazin-3(4H)-one]
  IC50: 0.008 µM

## O=C1CO[C@H]2CCN(C(=O)N3CC(CNC(c4ccccc4Cl)C(F)(F)F)C3)C[C@H]2N1 (stereo partly drawn) [Example 70, (4aR,8aS)-6-(3-(((1-(2-Chlorophenyl)-2,2,2-trifluoroethyl)amino)methyl)azetidine-1-carbonyl)hexahydro-2H-pyrido[4,3-b][1,4]oxazin-3(4H)-one]
  IC50: 0.012 µM

## O=C1CO[C@H]2CCN(C(=O)N3CC(CNC(c4ccccc4)C(F)(F)F)C3)C[C@H]2N1 (stereo partly drawn) [Example 71, (4aR,8aS)-6-(3-(((2,2,2-Trifluoro-1-phenylethyl)amino)methyl)azetidine-1-carbonyl)hexahydro-2H-pyrido[4,3-b][1,4]oxazin-3(4H)-one]
  IC50: 0.105 µM

## O=C1CO[C@H]2CCN(C(=O)N3CC(NC(=O)c4ccc(F)cc4Cl)C3)C[C@H]2N1 [Example 78, 2-chloro-4-fluoro-N-(1-((4aR,8aS)-3-oxooctahydro-2H-pyrido[4,3-b][1,4]oxazine-6-carbonyl)azetidin-3-yl)benzamide]
  IC50: 4.6 µM

## CN(CC1CN(C(=O)N2CC[C@@H]3OCC(=O)N[C@@H]3C2)C1)C(c1ccc(C(F)(F)F)cc1)C(F)(F)F (stereo partly drawn) [Example 80, (4aR,8aS)-6-(3-((Methyl(2,2,2-trifluoro-1-(4-(trifluoromethyl)phenyl)ethyl)amino)methyl)azetidine-1-carbonyl)hexahydro-2H-pyrido[4,3-b][1,4]oxazin-3 (4H)-one]
  IC50: 0.004 µM

## CN(C(=O)C1(c2cccc(C(F)(F)F)c2)CC1)C1CCN(C(=O)N2CC[C@@H]3OCC(=O)N[C@@H]3C2)CC1 [Example 82]
  IC50: 0.349 µM

## CN(C(=O)Cc1cccc(C(F)(F)F)c1Cl)C1CCN(C(=O)N2CC[C@@H]3OCC(=O)N[C@@H]3C2)CC1 [Example 83, N-[1-[(4aR,8aS)-3-oxo-4,4a,5,7,8,8a-hexahydropyrido[4,3-b][1,4]oxazine-6-carbonyl]piperidin-4-yl]-2-[2-chloro-3-(trifluoromethyl)phenyl]-N-methylacetamide]
  IC50: 0.608 µM

## CN(C(=O)Cc1cc(C(F)(F)F)ccc1Cl)C1CCN(C(=O)N2CC[C@@H]3OCC(=O)N[C@@H]3C2)CC1 [Example 84, N-[1-[(4aR,8aS)-3-oxo-4,4a,5,7,8,8a-hexahydropyrido[4,3-b][1,4]oxazine-6-carbonyl]piperidin-4-yl]-2-[2-chloro-5-(trifluoromethyl)phenyl]-N-methylacetamide]
  IC50: 1.14 µM

## O=C1CO[C@H]2CCN(C(=O)N3CC(CNC(c4ccc(F)cc4)C(F)(F)F)C3)C[C@H]2N1 (stereo partly drawn) [Example 106, (4aR,8aS)-6-[3-[[[2,2,2-Trifluoro-1-(4-fluorophenyl)ethyl]amino]methyl]azetidine-1-carbonyl]-4,4a,5,7,8,8a-hexahydropyrido[4,3-b][1,4]oxazin-3-one]
  IC50: 0.264 µM

## O=C1CO[C@H]2CCN(C(=O)N3CCC(C(NCc4cccc(C(F)(F)F)c4)C(F)(F)F)CC3)C[C@H]2N1 (stereo partly drawn) [Example 107, (4aR,8aS)-6-[4-[2,2,2-Trifluoro-1-[[3-(trifluoromethyl)phenyl]methylamino]ethyl]piperidine-1-carbonyl]-4,4a,5,7,8,8a-hexahydropyrido[4,3-b][1,4]oxazin-3-one]
  IC50: 0.055 µM

## O=C1CO[C@H]2CCN(C(=O)N3CCC(C#Cc4ccccc4Cl)CC3)C[C@H]2N1 [Example 125, (+)-(4aR,8aS)-6-[4-[2-(2-Chlorophenyl)ethynyl]piperidine-1-carbonyl]-4,4a,5,7,8,8a-hexahydropyrido[4,3-b][1,4]oxazin-3-one]
  IC50: 0.03 µM

## O=C1CO[C@H]2CCN(C(=O)N3CCC(C#Cc4cnccc4Cl)CC3)C[C@H]2N1 [Example 126, (+)-(4aR,8aS)-6-[4-[2-(4-Chloropyridin-3-yl)ethynyl]piperidine-1-carbonyl]-4,4a,5,7,8,8a-hexahydropyrido[4,3-b][1,4]oxazin-3-one]
  IC50: 0.306 µM

## O=C1CO[C@H]2CCN(C(=O)N3CCC(C#Cc4ncccc4Cl)CC3)C[C@H]2N1 [Example 127, (+)-(4aR,8aS)-6-[4-[2-(3-Chloropyridin-2-yl)ethynyl]piperidine-1-carbonyl]-4,4a,5,7,8,8a-hexahydropyrido[4,3-b][1,4]oxazin-3-one]
  IC50: 0.308 µM
